Assay results published in US20240190866A1, “POLYHYDROXYLATED INDOLIZIDINE AND PYRROLIZIDINE DERIVATIVES AND USES THEREOF” (Academia Sinica, priority 2021, published 2024).

Experiments:
[1] = Serum biochemistry assay in Huh7 xenograft mice; type: in vivo, NOD-SCID mice; details: serum, 30 mg/kg i.p., twice a week
Protocol: All blood specimens were collected in tubes and were left at 25° C. for 30 min to clot and centrifuged for 10 min at 1200 g. The concentrations of the following biochemical serum analytes collected were measured with FUJI DRI-CHEM 500i analyzer (FUJIFILM Corp., Tokyo, Japan) using the manufacturer's reagents and according to the manufacturer's instructions: Alanine Aminotransferase ALT), Aspartate Aminotransferase (AST), Blood Urea Nitrogen (BUN), Creatinine (CRE) and Total Bilirubin (TBIL).
HCC xenografts were established in 5-6 weeks old NOD-SCID mice by subcutaneous inoculation of about 5×10^6 Huh7 cells suspended in 50 μL PBS+50 μL, Matrigel (Corning, 394230) in the left and right flanks of each mouse. After one week of inoculation, tumors were palpable and the mice were assigned randomly to 1 of 4 treatment groups. Group 1 (vehicle control group, n=6) mice only received a vehicle solution containing Kolliphor EL (Sigma Aldrich, C5135), 99.9% ethanol and water in a ratio of 1:1:6. Groups 2, 3, 4 and 5 mice were intraperitoneally injected with the test compound (e.g., compound ACK900, ACK901, or ACK902) (30 mg/kg, ip, n=7/group) or sorafenib (30 mg/kg, ip, n=6/group), twice per week for 25 days. The tumor volume was calculated by the formula of a ratioinal ellipsoid: [0.5236×short axis) m1^2×(long axis)m^2], and the tumor volume was measured twice per week. All mice were sacrificed at 27 days after the treatment started. Tumor tissues were isolated, photographed and weighted.
In vivo tumor growth inhibition studies in human Huh7 xenograft rodents were performed in accordance with procedures as described in the “Material and Method” section. Xenograft tumors were generated by implanting Huh7 cells (5×10^6) subcutaneously into the left and right flanks of each NOD-SCID mouse. Starting on the 7th day after the inoculation of Huh7 cells, the mice were injected with ACK900, ACK901, ACK902 or sorafenib intraperitoneally (i.p.) at a dose of 30 mg/kg and twice a week for 34 days.

[2] = target: human lysosomal α-mannosidase (α-hLM) (Homo sapiens (Human), UniProt O00754); assay: α-Mannosidase (α-hLM) activity assay, 4-MU-α-D-mannopyranoside substrate; type: biochemical; details: pH 4.6, 37° C., 1 h
human lysosomal α-mannosidase (α-hLM), sequence (O00754 50-1011): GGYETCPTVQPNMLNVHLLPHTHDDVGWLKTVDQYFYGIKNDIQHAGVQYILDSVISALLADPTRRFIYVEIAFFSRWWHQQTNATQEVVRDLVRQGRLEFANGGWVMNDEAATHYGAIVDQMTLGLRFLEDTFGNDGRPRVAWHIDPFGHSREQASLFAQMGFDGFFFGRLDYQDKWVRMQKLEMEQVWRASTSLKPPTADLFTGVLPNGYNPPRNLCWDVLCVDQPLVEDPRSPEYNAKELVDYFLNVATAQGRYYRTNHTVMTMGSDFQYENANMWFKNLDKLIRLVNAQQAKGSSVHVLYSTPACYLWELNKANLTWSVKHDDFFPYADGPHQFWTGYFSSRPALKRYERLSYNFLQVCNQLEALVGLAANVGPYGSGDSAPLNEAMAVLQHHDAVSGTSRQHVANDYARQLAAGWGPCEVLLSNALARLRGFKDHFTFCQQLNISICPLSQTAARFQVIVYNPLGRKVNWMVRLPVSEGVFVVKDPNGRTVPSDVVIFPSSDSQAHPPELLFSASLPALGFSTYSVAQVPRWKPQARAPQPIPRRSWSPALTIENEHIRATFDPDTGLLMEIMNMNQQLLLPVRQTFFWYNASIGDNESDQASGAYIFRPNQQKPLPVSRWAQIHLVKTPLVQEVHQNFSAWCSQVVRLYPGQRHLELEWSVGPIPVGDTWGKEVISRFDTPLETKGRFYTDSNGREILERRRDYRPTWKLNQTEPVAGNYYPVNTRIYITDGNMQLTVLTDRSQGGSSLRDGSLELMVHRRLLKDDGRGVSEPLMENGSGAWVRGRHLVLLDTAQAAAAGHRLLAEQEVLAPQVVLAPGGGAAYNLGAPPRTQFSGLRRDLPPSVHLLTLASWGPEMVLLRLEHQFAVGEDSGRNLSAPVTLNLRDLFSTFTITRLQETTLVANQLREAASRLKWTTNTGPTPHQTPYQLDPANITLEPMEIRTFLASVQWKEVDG
Protocol: Compounds were diluted to give the final concentration of 100 μM and mixed with 4-MU-α-D-mannopyranoside as substrate and human Golgi α-mannosidase II in phosphate buffer (0.1 M Sodium phosphate dibasic, pH 7.0) or human lysosomal α-mannosidase in citric phosphate buffer (0.1 M Sodium phosphate monobasic monohydrate, 0.5 mM citric acid monohydrate, pH 4.6). The assay was carried out at 37° C. for a certain time (1 h for α-hLM, 2 h for α-hGMII). Stop solution (0.5 M K2CO3(aq), pH 10.8) was then added to the reactions and the fluorescence was determined at 355 nm excitation and 460 nm emission (SpectraMax M5, Molecular Devices). Inhibition was performed as relative enzyme activity to control. The active compounds were selected for libraries preparation and further tested at lower concentration to determine their IC50 values. The assays performed in 384-wells of the microtiter plates.

MDA-MB-231 cells = assay: Anti-proliferative activity assay (CellTiter-Glo); type: cell-based, human; details: 48 h
Protocol: (§1) Human liver cancer HepG2 cells and Huh7 cells, breast cancer MDA-MB-231 cells, pancreatic cancer PANC-1 cells, and non-small cell lung (NSCL) cancer H1975 cells were maintained in Dulbecco's Modified Eagle Medium supplemented containing 10% fetal bovine serum (FBS), 100 units/ml penicillin and […] streptomycin in 37° C. incubator with 5% CO2.
(§2) Anti-proliferative activity of HepG2, Huh7 or PANC-1 cells was determined by 3-(4,5-dimethylthiazol-2-yl)-2,5-diphenyltetrazolium bromide (MTT) assay, while that of H1975 or MDA-MB-231 cells was determined by luminescent assay with the aid of commercial kit CellTiter-Glo® (Promega).
(§3) For H1975 and MDA-MB-231, cells were respectively seeded at 5×10^3 cells/well in 96-well plates and maintained for 14-16 hours. Cells were treated with dimethylsulfoxide (DMSO) or test compounds in varied concentrations for 48 h. Cell viability was monitored using Cell-TiterGlo (Promega), a kit that measures the quantity of ATP present in the cell culture, an indicator of metabolically active cells. The IC50 values of death cell lines were calculated accordingly.

H1975 cells = assay: Anti-proliferative activity assay (CellTiter-Glo); type: cell-based, human; details: 48 h
Protocol: as §1, §2, §3

HepG2 cells [3] = assay: Surface binding of lectin by fluorescence microscopy; type: cell-based, human; details: HepG2, 10 μM, 48 h
Huh7 cells [4] = assay: Transwell invasion assay; type: cell-based, human
Protocol: (§4) Chemotaxis experiments with human HepG2Huh7, or PANC-1 cells were assayed by using transwells (Millipore). The cells to be analyzed (5×10^4 cells/well) were seeded in the upper chambers of the 24-well plate in 400 μL serum-free medium. FBS (10%) was used as the chemoattractant with or without different concentrations of the test compound (e.g., ACK900, ACK901, ACK902) in the lower chamber, and the plate was incubated under standard conditions. After incubation for 18 hours, the media in the upper chambers were aspirated and washed with phosphate-buffered saline (PBS) twice. Both non-migrated and migrated cells were fixed with 4% paraformaldehyde (PFA) for 30 minutes at room temperature, stained with 2% crystal violet solution. The non-invading cells were removed from the upper surface of the insert membrane with a cotton swab. The images were taken using an imaging reader (Cytation 5, BioTek, VT, U.S.A.) and analyzed using NIH ImageJ software. Percent in the results represent percent of initial number of cells in the migrating and nonmigrating Cell fractions.

HepG2 cells [5] = assay: Transwell invasion assay; type: cell-based, human
Protocol: as §4

PANC-1 cells [6] = assay: Transwell invasion assay; type: cell-based, human; details: PANC-1, transwell
Protocol: as §4

Huh7 cells [7] = assay: Surface binding of lectin by fluorescence microscopy; type: cell-based, human; details: Huh7, 10 μM, 48 h
Huh7 cells [8] = assay: Transwell migration assay; type: cell-based, human; details: 18 hours
Protocol: as §4

HepG2 cells [9] = assay: Transwell migration assay; type: cell-based, human; details: 18 hours
Protocol: as §4

PANC-1 cells [10] = assay: Transwell migration assay; type: cell-based, human; details: PANC-1, transwell, 18 hours
Protocol: as §4

CCC[C@H]1CC[C@H](c2ccc(NC(=S)NC[C@@H]3[C@@H](O)[C@@H](O)[C@H]4[C@H](O)CCCN43)cc2)CC1 [ACK900]
ALT [1]: 101.57 ± 70.63 U/L
AST [1]: 223.42 ± 157.00 U/L
BUN [1]: 22.37 ± 4.41 mg/dL
CRE [1]: 0.33 ± 0.05 mg/dL
TBIL [1]: 0.55 ± 0.18 mg/dL
IC50 [2]: 14 µM
IC50 (MDA-MB-231 cells): 4.6 µM
IC50 (H1975 cells): 13.9 µM
surface binding of Concanavalin A (ConA) (HepG2 cells [3]): markedly increased
surface binding of galectin-1 (Gal1) (HepG2 cells [3]): substantially decreased
invasive capability (Huh7 cells [4]): remarkably decreased
invasive capability (HepG2 cells [5]): remarkably decreased
invasive capability (PANC-1 cells [6]): remarkably decreased
surface binding of Concanavalin A (ConA) (Huh7 cells [7]): markedly increased
surface binding of galectin-1 (Gal1) (Huh7 cells [7]): substantially decreased
migratory capability (Huh7 cells [8]): remarkably decreased
migratory capability (HepG2 cells [9]): remarkably decreased
migratory capability (PANC-1 cells [10]): remarkably decreased
